Tests used:
Experiment in all cases: relative viability (nuclei count vs DMSO), 5 days (fraction); higher = more cells survive
[1] = compound: CC1CC(=O)N(C2=CN=C(N=C2N1C3CCCC3)NC4=C(C=C(C=C4)C(=O)NC5CCN(CC5)C)OC)C [NPK76-II-72-1] + Cc1nc(Nc2ncc(C(=O)Nc3c(C)cccc3Cl)s2)cc(N2CCN(CCO)CC2)n1 [Dasatinib] (partner 0.075 µM)
Method in brief: (§1)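 Five library-drug doses in √10 steps were combined with a fixed anchor-drug dose, or a single drug was given alone, by pin tool to lung cancer cell lines in 1536-well plates the day after seeding. Nuclei were stained and counted after 5 days. Relative viability is the nuclei count in treated wells over that in vehicle wells, taken as the median of duplicate plates.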

[2] = compound: CC[C@@H]1C(=O)N(C)c2cnc(Nc3ccc(C(=O)NC4CCN(C)CC4)cc3OC)nc2N1C1CCCC1 [BI-2536] + CC(=O)Nc1cccc(-n2c(=O)n(C3CC3)c(=O)c3c(Nc4ccc(I)cc4F)n(C)c(=O)c(C)c32)c1 [Trametinib] (partner 0.02 µM)
Method in brief: as §1

[3] = compound: CC[C@@H]1C(=O)N(C)c2cnc(Nc3ccc(C(=O)NC4CCN(C)CC4)cc3OC)nc2N1C1CCCC1 [BI-2536] + COc1cc2c(Oc3ccc(NC(=O)C4(C(=O)Nc5ccc(F)cc5)CC4)cc3F)ccnc2cc1OCCCN1CCOCC1 [Foretinib] (partner 0.25 µM)
Method in brief: as §1

[4] = compound: CC[C@@H]1C(=O)N(C)c2cnc(Nc3ccc(C(=O)NC4CCN(C)CC4)cc3OC)nc2N1C1CCCC1 [BI-2536] + CS(=O)(=O)N1CCN(Cc2cc3nc(-c4cccc5[nH]ncc45)nc(N4CCOCC4)c3s2)CC1 [Pictilisib] (partner 1 µM)
Method in brief: as §1

Row | Cell Line | relative viability ([1]; first compound 0.01 µM) | relative viability ([1]; first compound 0.03162 µM) | relative viability ([1]; first compound 0.1 µM) | relative viability ([1]; first compound 0.3162 µM) | relative viability ([1]; first compound 1 µM) | relative viability ([2]; first compound 0.01 µM) | relative viability ([2]; first compound 0.03162 µM) | relative viability ([2]; first compound 0.1 µM) | relative viability ([2]; first compound 0.3162 µM) | relative viability ([2]; first compound 1 µM) | relative viability ([3]; first compound 0.01 µM) | relative viability ([3]; first compound 0.03162 µM) | relative viability ([3]; first compound 0.1 µM) | relative viability ([3]; first compound 0.3162 µM) | relative viability ([3]; first compound 1 µM) | relative viability ([4]; first compound 0.01 µM) | relative viability ([4]; first compound 0.03162 µM) | relative viability ([4]; first compound 0.1 µM) | relative viability ([4]; first compound 0.3162 µM) | relative viability ([4]; first compound 1 µM)
1 | NCI-H1437 | 0.416 | 0.388 | 0.321 | 0.33 | 0.417 | 0.636 | 0.483 | 0.428 | 0.149 | 0.177 | 1.25 | 1.18 | 0.852 | 0.198 | 0.179 | 0.428 | 0.427 | 0.397 | 0.098 | 0.099
2 | COR-L23 | 0.439 | 0.533 | 0.554 | 0.433 | 0.526 | 0.579 | 0.582 | 0.394 | 0.0573 | 0.0949 | 1.04 | 1.04 | 0.453 | 0.128 | 0.0906 | 0.636 | 0.593 | 0.101 | 0.0743 | 0.0991
3 | ABC-1 |  | 0.578 | 0.622 | 0.573 | 0.614 |  |  |  |  |  | 1.18 | 0.868 | 0.711 | 0.249 | 0.187 | 0.81 | 0.609 | 0.214 | 0.31 | 0.243
4 | SW 900 | 0.496 | 0.574 | 0.378 | 0.78 | 0.572 | 0.929 | 0.942 | 0.875 | 0.828 | 0.147 | 0.775 | 0.8 | 0.983 | 0.2 | 0.138 |  |  |  |  | 
5 | NCI-H838 | 0.28 | 0.247 | 0.253 | 0.265 | 0.292 | 0.532 | 0.625 | 0.478 | 0.081 | 0.0789 | 0.953 | 1.06 | 0.636 | 0.145 | 0.134 | 0.44 | 0.393 | 0.203 | 0.118 | 0.122
6 | NCI-H1648 |  |  |  |  |  | 0.463 | 0.409 | 0.434 | 0.28 | 0.289 |  |  |  |  |  |  |  |  |  | 
7 | A549 |  |  |  |  |  |  |  |  |  |  | 0.962 | 0.901 | 0.427 | 0.0288 | 0.0231 | 0.46 | 0.461 | 0.0515 | 0.0559 | 0.0422
8 | A-427 | 0.659 | 0.822 | 0.688 | 0.674 | 0.726 | 0.733 | 0.662 | 0.605 | 0.184 | 0.189 | 1.02 | 0.919 | 1.08 | 0.166 | 0.148 | 0.776 | 0.707 | 0.606 | 0.0766 | 0.122
9 | NCI-H1792 | 0.799 |  | 0.842 | 0.66 | 0.726 | 0.604 | 0.417 | 0.395 | 0.0597 | 0.0491 |  |  |  |  |  | 0.307 | 0.354 | 0.207 | 0.111 | 0.0623
10 | LCLC-97TM1 | 0.896 | 0.917 | 0.822 | 0.785 | 0.8 | 0.189 | 0.179 | 0.2 | 0.0929 | 0.0902 | 0.958 | 0.91 | 0.637 | 0.149 | 0.179 | 0.182 | 0.185 | 0.127 | 0.11 | 0.0962
11 | NCI-H1703 |  |  |  |  |  |  |  |  |  |  |  | 0.296 | 0.191 | 0.152 | 0.14 | 0.244 | 0.239 | 0.137 | 0.174 | 0.131
12 | LCLC-103H | 0.418 | 0.442 | 0.404 | 0.535 | 0.447 | 0.671 | 0.711 | 0.69 | 0.336 | 0.277 | 0.802 | 0.854 | 0.618 | 0.161 | 0.153 | 0.585 | 0.568 | 0.508 | 0.711 | 0.144
13 | PC-3 [JPC-3] | 0.937 | 1.02 | 0.916 | 0.973 | 1.07 | 0.71 | 0.583 | 0.616 | 0.357 | 0.438 | 1.06 | 0.914 | 0.753 | 0.17 | 0.187 | 0.682 | 0.769 | 0.441 | 0.268 | 0.291
14 | BEN | 0.33 | 0.232 | 0.314 | 0.345 | 0.324 | 1.05 | 0.813 | 0.959 | 0.515 | 0.435 | 0.564 | 0.818 | 0.361 | 0.243 | 0.248 | 0.574 | 0.48 | 0.389 | 0.235 | 0.209
15 | NCI-H1666 | 0.705 | 0.841 | 0.723 | 0.832 | 0.912 | 0.919 | 0.914 | 0.865 | 0.49 | 0.512 | 1.02 | 0.981 | 0.826 | 0.447 | 0.421 | 0.558 | 0.393 | 0.2 | 0.221 | 0.2
16 | Calu-6 |  |  |  |  |  |  |  |  |  |  | 0.8 | 0.613 | 0.281 | 0.0815 | 0.0737 | 0.894 | 0.396 | 0.107 | 0.0926 | 0.0965
17 | NCI-H2342 | 0.345 | 0.301 | 0.328 | 0.262 | 0.346 |  | 0.705 | 0.73 | 0.604 | 0.454 | 1.01 | 0.973 | 0.976 | 0.633 | 0.357 |  |  |  |  | 
18 | EBC-1 |  |  |  |  |  |  |  |  |  |  | 0.0994 | 0.0943 | 0.0905 | 0.0859 | 0.0908 | 0.35 | 0.232 | 0.147 | 0.158 | 0.119
19 | NCI-H1299 |  |  |  |  |  |  |  |  |  |  | 1.15 | 1.09 | 0.773 | 0.308 | 0.242 | 0.708 | 0.351 | 0.154 | 0.0991 | 0.0448
20 | NCI-H522 | 0.77 | 0.887 | 1.09 | 0.86 | 0.828 | 0.745 | 0.757 | 0.766 | 0.302 | 0.289 |  |  |  |  |  |  |  |  |  | 
21 | IA-LM |  |  |  |  |  |  |  |  |  |  | 1.24 | 1.14 | 0.518 | 0.0587 | 0.0439 | 0.346 | 0.264 | 0.0753 | 0.0992 | 0.0622
